Results: ChEMBL document CHEMBL1909046, “DrugMatrix in vitro pharmacology data”

Legend:
[1] = DRUGMATRIX: Interleukin IL-1 radioligand binding (ligand: [125I] interleukin 1beta); type: cell membranes, Membrane; settings: nih3t3; Not Active = under 50% inhibition at 10 µM
[2] = biological target: T1, Muscarinic acetylcholine receptor M2 (Homo sapiens, UniProt P08172); type: cell membranes, CHO-K1, Membrane; settings: cho-k1; further: in other assays of this panel Not Active means under 50% inhibition at 10 µM
T1 sequence (P08172 whole entry): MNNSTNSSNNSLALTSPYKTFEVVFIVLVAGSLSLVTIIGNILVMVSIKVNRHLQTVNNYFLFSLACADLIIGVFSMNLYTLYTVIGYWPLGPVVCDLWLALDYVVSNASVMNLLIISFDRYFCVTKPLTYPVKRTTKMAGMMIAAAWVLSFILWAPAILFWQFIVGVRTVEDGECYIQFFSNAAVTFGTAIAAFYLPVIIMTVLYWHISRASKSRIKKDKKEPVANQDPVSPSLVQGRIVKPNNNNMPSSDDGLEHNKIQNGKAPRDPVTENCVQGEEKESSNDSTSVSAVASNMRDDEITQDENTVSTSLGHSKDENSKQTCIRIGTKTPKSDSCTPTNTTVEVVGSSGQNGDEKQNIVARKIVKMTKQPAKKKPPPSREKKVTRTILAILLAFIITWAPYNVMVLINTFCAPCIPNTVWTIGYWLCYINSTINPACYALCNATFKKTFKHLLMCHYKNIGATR

[3] = biological target: T2, Muscarinic acetylcholine receptor M4 (Homo sapiens, UniProt P08173); type: cell membranes, CHO-K1, Membrane; settings: cho-k1; further: in other assays of this panel Not Active means under 50% inhibition at 10 µM
T2 sequence (P08173 whole entry): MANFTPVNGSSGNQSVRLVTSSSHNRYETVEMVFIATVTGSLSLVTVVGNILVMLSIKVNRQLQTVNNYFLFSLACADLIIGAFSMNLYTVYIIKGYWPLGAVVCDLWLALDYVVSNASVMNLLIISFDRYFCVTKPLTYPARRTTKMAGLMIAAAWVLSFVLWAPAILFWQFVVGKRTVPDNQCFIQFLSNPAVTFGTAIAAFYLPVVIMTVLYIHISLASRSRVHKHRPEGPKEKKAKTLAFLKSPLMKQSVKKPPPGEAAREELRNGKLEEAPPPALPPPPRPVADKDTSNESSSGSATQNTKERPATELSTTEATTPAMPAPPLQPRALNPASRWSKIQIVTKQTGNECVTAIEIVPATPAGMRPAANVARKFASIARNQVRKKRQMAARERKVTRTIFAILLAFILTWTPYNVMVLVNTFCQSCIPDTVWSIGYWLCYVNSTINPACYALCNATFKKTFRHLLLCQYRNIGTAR

[4] = DRUGMATRIX: Potassium Channel [KATP] radioligand binding (ligand: [3H] Glyburide); type: cell membranes, Membrane; settings: hit-t15; Not Active = under 50% inhibition at 10 µM
[5] = biological target: T3, Cathepsin G (Homo sapiens, UniProt P08311); type: tissue-based; settings: neutrophil;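 further: inhibition of Cathepsin G enzyme activity, tested on an AMC-conjugated peptide substrate; in other assays of this panel Not Active means under 50% inhibition at 10 µM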
T3 sequence (P08311 whole entry): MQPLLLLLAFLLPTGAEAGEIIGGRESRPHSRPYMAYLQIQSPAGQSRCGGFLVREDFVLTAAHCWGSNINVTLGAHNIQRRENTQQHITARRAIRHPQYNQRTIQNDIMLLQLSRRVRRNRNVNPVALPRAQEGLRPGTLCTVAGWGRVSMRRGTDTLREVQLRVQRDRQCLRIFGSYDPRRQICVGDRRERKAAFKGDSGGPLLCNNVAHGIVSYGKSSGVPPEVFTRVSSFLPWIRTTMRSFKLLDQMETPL

[6] = biological target: T4, Cytochrome P450 2A6 (Homo sapiens, UniProt P11509); settings: bti-tn-5b1-4; further: in other assays of this panel Not Active means under 50% inhibition at 10 µM
T4 sequence (P11509 whole entry): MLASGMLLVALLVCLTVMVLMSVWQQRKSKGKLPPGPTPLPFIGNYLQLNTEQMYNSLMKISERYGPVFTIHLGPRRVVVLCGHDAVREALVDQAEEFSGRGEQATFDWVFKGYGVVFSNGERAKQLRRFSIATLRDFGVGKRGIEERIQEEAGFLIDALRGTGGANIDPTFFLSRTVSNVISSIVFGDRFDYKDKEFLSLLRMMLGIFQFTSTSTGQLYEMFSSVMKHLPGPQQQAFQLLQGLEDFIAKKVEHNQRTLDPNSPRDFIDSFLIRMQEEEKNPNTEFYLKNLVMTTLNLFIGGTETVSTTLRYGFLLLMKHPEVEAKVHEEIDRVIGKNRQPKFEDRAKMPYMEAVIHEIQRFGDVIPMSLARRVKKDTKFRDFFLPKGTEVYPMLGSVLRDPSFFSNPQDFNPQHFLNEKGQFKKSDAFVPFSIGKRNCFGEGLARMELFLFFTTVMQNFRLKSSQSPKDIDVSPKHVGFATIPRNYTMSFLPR

[7] = biological target: Cytochrome P450 2E1 (Homo sapiens, UniProt P05181); settings: bti-tn-5b1-4; further: in other assays of this panel Not Active means under 50% inhibition at 10 µM
Sequence of Cytochrome P450 2E1 (P05181 whole entry): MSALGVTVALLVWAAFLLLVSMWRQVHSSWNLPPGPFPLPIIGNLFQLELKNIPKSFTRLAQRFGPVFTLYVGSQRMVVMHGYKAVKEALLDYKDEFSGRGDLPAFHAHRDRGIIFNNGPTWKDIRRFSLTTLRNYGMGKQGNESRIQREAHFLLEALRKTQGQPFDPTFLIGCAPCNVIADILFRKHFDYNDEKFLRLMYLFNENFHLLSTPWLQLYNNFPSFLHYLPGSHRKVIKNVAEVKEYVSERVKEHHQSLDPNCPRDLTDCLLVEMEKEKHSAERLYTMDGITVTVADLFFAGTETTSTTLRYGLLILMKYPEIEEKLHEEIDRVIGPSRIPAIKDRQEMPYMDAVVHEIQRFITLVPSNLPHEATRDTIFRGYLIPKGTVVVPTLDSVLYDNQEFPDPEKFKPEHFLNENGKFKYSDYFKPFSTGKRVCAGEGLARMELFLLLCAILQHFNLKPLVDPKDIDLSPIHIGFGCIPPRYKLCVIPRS

CC(=O)O[C@]1(C(C)=O)CC[C@H]2[C@@H]3C=C(C)C4=CC(=O)CC[C@]4(C)[C@H]3CC[C@@]21C [MEGESTROL ACETATE]
Not Active: IC50 [1] | Ki [1] | IC50 [2] | IC50 [3] | IC50 [4] | Ki [4] | IC50 [5] | IC50 [6] | Ki [6] | IC50 [7] | Ki [7]

COc1ccccc1OCC(O)COC(N)=O (stereo not drawn) [METHOCARBAMOL]
Not Active: IC50 [1] | Ki [1] | IC50 [2] | IC50 [3] | IC50 [4] | Ki [4] | IC50 [5] | IC50 [6] | Ki [6] | IC50 [7] | Ki [7]

CN(Cc1cnc2nc(N)nc(N)c2n1)c1ccc(C(=O)N[C@@H](CCC(=O)O)C(=O)O)cc1 [METHOTREXATE]
Not Active: IC50 [1] | Ki [1] | IC50 [2] | IC50 [3] | IC50 [4] | Ki [4] | IC50 [5] | IC50 [6] | Ki [6] | IC50 [7] | Ki [7]

COC(=O)c1ccccc1O [METHYL SALICYLATE]
Not Active: IC50 [1] | Ki [1] | IC50 [2] | IC50 [3] | IC50 [4] | Ki [4] | IC50 [5] | IC50 [6] | Ki [6] | IC50 [7] | Ki [7]

COc1ccc2cc(CCC(C)=O)ccc2c1 [NABUMETONE]
Not Active: IC50 [1] | Ki [1] | IC50 [2] | IC50 [3] | IC50 [4] | Ki [4] | IC50 [5] | IC50 [6] | Ki [6] | IC50 [7] | Ki [7]

O=C(O)c1cccnc1 [NIACIN]
Not Active: IC50 [1] | Ki [1] | IC50 [2] | IC50 [3] | IC50 [4] | Ki [4] | IC50 [5] | IC50 [6] | Ki [6] | IC50 [7] | Ki [7]

CNC(=C[N+](=O)[O-])NCCSCc1csc(CN(C)C)n1 [NIZATIDINE]
Not Active: IC50 [1] | Ki [1] | IC50 [2] | IC50 [3] | IC50 [4] | Ki [4] | IC50 [5] | IC50 [6] | Ki [6] | IC50 [7] | Ki [7]

C[C@]12C/C(=C/O)C(=O)C[C@@H]1CC[C@@H]1[C@@H]2CC[C@@]2(C)[C@H]1CC[C@]2(C)O [OXYMETHOLONE]
Not Active: IC50 [1] | Ki [1] | IC50 [2] | IC50 [3] | IC50 [4] | Ki [4] | IC50 [5] | IC50 [6] | Ki [6] | IC50 [7] | Ki [7]
